Laboratory results published in US4755524A, “Novel phenolic thioethers as inhibitors of 5-lipoxygenase” (G. D. Searle & Co., priority 1987, dated 1988).
Counter-ions that a name gives are not always drawn.

Columns and labels:
5-lipoxygenase = biological target: T1, 5-lipoxygenase (Rattus norvegicus, UniProt P12527); test: Inhibition of 5-lipoxygenase, in vitro; format: biochemical; conditions: 100,000×g supernatant of RBL-1 homogenate, 14C-arachidonic acid, 5-HETE measured
T1 construct: supernatant fraction of Rat Basophilic Leukemia Cell Homogenate (RBL-1) serves as a 5-lipoxygenase enzyme source; endogenous in cells; host or cells: RBL-1 (rat basophilic leukemia) cells, 100,000×g supernatant of homogenate
T1 sequence (P12527 1-673): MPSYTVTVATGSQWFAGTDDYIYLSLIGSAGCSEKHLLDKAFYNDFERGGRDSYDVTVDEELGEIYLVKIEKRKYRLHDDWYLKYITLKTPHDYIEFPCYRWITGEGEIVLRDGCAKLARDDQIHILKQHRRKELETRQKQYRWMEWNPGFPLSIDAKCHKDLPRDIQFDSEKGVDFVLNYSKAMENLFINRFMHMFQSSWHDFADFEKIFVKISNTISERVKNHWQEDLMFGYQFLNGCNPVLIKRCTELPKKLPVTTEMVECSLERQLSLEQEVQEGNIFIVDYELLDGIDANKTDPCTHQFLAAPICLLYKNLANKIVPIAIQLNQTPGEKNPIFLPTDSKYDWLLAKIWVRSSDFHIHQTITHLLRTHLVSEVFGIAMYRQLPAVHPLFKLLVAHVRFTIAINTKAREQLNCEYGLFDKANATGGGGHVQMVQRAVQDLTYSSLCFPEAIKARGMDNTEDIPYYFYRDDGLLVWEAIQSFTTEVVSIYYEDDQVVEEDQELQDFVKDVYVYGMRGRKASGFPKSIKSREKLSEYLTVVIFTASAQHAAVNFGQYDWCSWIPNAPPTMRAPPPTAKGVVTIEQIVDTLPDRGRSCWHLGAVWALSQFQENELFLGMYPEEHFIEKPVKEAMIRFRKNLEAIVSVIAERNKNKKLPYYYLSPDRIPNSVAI
Description: The compounds of the invention are evaluated with respect to 5-lipoxygenaseinhibition according to the following assay procedures.
(1) Inhibition of 5-lipoxygenase, in vitro: anti-inflammatory, anti-allergyactivities.
The 100,000×g supernatant fraction of Rat Basophilic Leukemia Cell Homogenate (RBL-1) serves as a 5-lipoxygenase enzyme source. The enzyme is incubated with [(1-^14 C)-arachidonic acid and Ca++ in the presence and absence of test compound. The product of 5-lipoxygenase, 5-hydroxyeicosatetraenoic acid (5-HETE), is separated by thin-layer chromatography and measured by radioactivity. A compound inhibiting 5-HETE synthesis by 30% or more is considered active at that concentration.

[1] = test system: OA-induced bronchoconstriction in the Guinea Pig; test: In vivo inhibition of ovalbumin-induced bronchoconstriction - Anti-allergy assay
Description: (2) In vivo inhibition of ovalbumin-induced bronchoconstriction-Anti-allergy assay.
Adult, male Hartley guinea pigs (300-350 g, fasted) actively sensitized to ovalbumin are utilized in this assay.
Ovalbumin (OA) causes bronchoconstriction when administered to actively-sensitized guinea pigs. The observed bronchoconstriction is comprised of at least two distinct components:
(a) a cyclooxygenase-dependent, rapidly occurring bronchoconstriction mediated by thromboxane A2 and possibly other mediators and
(b) a 5-lipoxygenase dependent slow developing component, dependent upon the de novo generation of LTC4 and LTD4.
All test animals are pretreated with aspirin and pyrilamine to block the occurrence of the rapidly occurring component (a). Compounds which block the generation of LTC4 and LTD4 (5-lipoxygenase inhibitors) or antagonize the activity of LTC4 /LTD4 (leukotriene inhibitors) modulate the severity of the remaining component of this well-characterized anaphylactic response.
Test compounds are administered at screening doses of 50 mg/kg, i.v., or 100 mg/kg, i.g. A compound is rated active in this test if it causes a significant reduction (i.e., p 0.05, student's t-test) in intratracheal insufflation pressure induced by an i.v. injection of ovalbumin (3 mg/ml, i.v.), aspirin (5 mg/kg, i.v.) and propanolol (6 mg/kg i.p.). Treated animals are statistically compared to concurrent vehicle treated controls. Compounds rated active in inhibiting the production of the LTC4 /LTD4 allergic mediators through inhibition of 5-lipoxygenase according to this test are believed to play a significant role in bronchopulmonary allergic conditions, e.g., asthma.

[2] = more potent than histamine; cited from earlier work
[3] = i.g. @ 3 hr., vehicle 2 (peanut oil)
[4] = i.g. @ 3 hr., vehicle 1 (20% DMSO in polyethylene glycol)

Row | SMILES | IC50 (5-lipoxygenase) [nM] | Antagonism of OA-induced bronchoconstriction in the Guinea Pig (min. effective dose) [1, 3] [mg/kg] | also measured
1 | COC(=O)CSCCSc1cc(C(C)(C)C)c(O)c(C(C)(C)C)c1 [Example 8, methyl[[2-[[3,5-bis(1,1-dimethylethyl)-4-hydroxyphenyl]thio]ethyl]thio]acetate] |  |  | Antagonism of OA-induced bronchoconstriction in the Guinea Pig (min. effective dose) [1, 4]: 100 mg/kg
2 | CC(C)(C)c1cc(SCCSCC(=O)O)cc(C(C)(C)C)c1O [Example 4, [[2-[[3,5-bis(1,1-dimethylethyl)-4-hydroxyphenyl]thio]ethyl]thio]acetic acid] | 1400 | 100 | 
3 | CC(C)(C)c1cc(SCCSCCC(=O)O)cc(C(C)(C)C)c1O [Example 13, 3-[[2-[[3,5-bis(1,1-dimethylethyl)-4-hydroxyphenyl]thio]ethyl]thio]propanoic acid] | 1000 |  | Antagonism of OA-induced bronchoconstriction in the Guinea Pig (min. effective dose) ([1]; i.g. @ 5 hr., vehicle 2 (peanut oil)): 100 mg/kg
4 | O=C(O)CSCCSc1ccc(O)cc1 [Example 37, [[2-[(4-hydroxyphenyl)thio]ethyl]thio]acetic acid, reference compound] | 55000 | 100 | 
5 | Cc1cc(SCCSCC(=O)O)ccc1O [Example 34, [[2-[(4-hydroxy-3-methylphenyl)thio]ethyl]thio]acetic acid, reference compound] | ~100000 | 100 | 
6 | CC(SCC(=O)O)C(C)Sc1cc(C(C)(C)C)c(O)c(C(C)(C)C)c1 (centres unmarked) [Example 20, [[2-[[3,5-bis(1,1-dimethylethyl)-4-hydroxyphenyl]thio]-1-methylpropyl]thio]acetic acid] | 820 | 32 | 
7 | CC(C)(C)c1cc(SCCOCC(=O)O)cc(C(C)(C)C)c1O [Example 31, [2-[[3,5-bis(1,1-dimethylethyl)-4-hydroxyphenyl]thio]ethoxy]acetic acid] | 7300 |  | 
8 | CC(C)(C)c1cc(SCCSCC(=O)O)cc(C(C)(C)C)c1O [Example 3, [[2-[[3,5-bis(1,1-dimethylethyl)-4-hydroxyphenyl]thio]ethyl]thio]acetic acid, monosodium salt] |  |  | Antagonism of OA-induced bronchoconstriction in the Guinea Pig (min. effective dose) ([1]; i.g. @ 3 hr., vehicle 1 (20% DMSO in polyethylene glycol), monosodium salt): 100 mg/kg
9 | CC(C)(C)c1cc(SCCSCC(=O)O)cc(C(C)(C)C)c1O [Example 6, [[2-[[3,5-bis(1,1-dimethylethyl)-4-hydroxyphenyl]thio]ethyl]thio]acetic acid, 2,2',2"nitrilotris[ethanol] salt] | 1800 |  | Antagonism of OA-induced bronchoconstriction in the Guinea Pig (min. effective dose) [1, 4]: 50 mg/kg
10 | CCCCC/C=C\C\C=C/C=C/C=C/[C@@H](SC[C@H](NC(=O)CC[C@H](N)C(=O)O)C(=O)NCC(=O)O)[C@@H](O)CCCC(=O)O [LTC4] |  |  | potency relative to histamine in causing long lasting bronchoconstricting effects [2]: at least 100 times

Further molecules by falling IC50 (5-lipoxygenase), results first:

Row | IC50 (5-lipoxygenase) [nM] | SMILES | Antagonism of OA-induced bronchoconstriction in the Guinea Pig (min. effective dose) [1, 3] [mg/kg] | also measured
11 | 330 | CCOC(=O)C[S+]([O-])CCSc1cc(C(C)(C)C)c(O)c(C(C)(C)C)c1 (centres unmarked) [Example 12, ethyl[[2-[[3,5-bis(1,1-dimethylethyl)-4-hydroxyphenyl]thio]ethyl]sulfinyl]acetate] |  | 
12 | 310 | COC(=O)CSCC(O)CSc1cc(C(C)(C)C)c(O)c(C(C)(C)C)c1 (centres unmarked) [Example 42, methyl[[3-[[3,5-bis(1,1-dimethylethyl)-4-hydroxyphenyl]thio]-2-hydroxypropyl]thio]acetate] |  | Antagonism of OA-induced bronchoconstriction in the Guinea Pig (min. effective dose) ([1]; i.g. @ 2 hr., vehicle 1 (20% DMSO in polyethylene glycol)): 50 mg/kg
13 | 300 | CCOC(=O)CS(=O)(=O)CCSc1cc(C(C)(C)C)c(O)c(C(C)(C)C)c1 [Example 17, ethyl[[2-[[3,5-bis(1,1-dimethylethyl)-4-hydroxyphenyl]thio]ethyl]sulfonyl]acetate] |  | 
14 | 240 | COC(=O)CSC(C)C(C)Sc1cc(C(C)(C)C)c(O)c(C(C)(C)C)c1 (centres unmarked) [Example 19, methyl[[2-[[3,5-bis(1,1-dimethylethyl)-4-hydroxyphenyl]thio]-1-methylpropyl]thio]acetate] | 32 | 
15 | 120 | COC(=O)CCCSCCSc1cc(C(C)(C)C)c(O)c(C(C)(C)C)c1 [Example 15, methyl 4-[[2-[[3,5-bis(1,1-dimethylethyl)-4-hydroxyphenyl]thio]ethyl]thio]butanoate] |  | 
